Experimental data published in patent US7339080B2, “Method for the production of diaminoxylene by continuous hydrogenation of liquid phthalonitrile” (BASF Aktiengesellschaft, priority 2003, dated 2008).

Test: solubility of IPN in process solvents (MXDA, liquid ammonia)
Format: physicochemical

N#Cc1cccc(C#N)c1 [IPN, 1,3-dicyanobenzene]
solubility of IPN in MXDA (in MXDA at 70° C.): approx. 20 % by weight
solubility of IPN in NH3 (in liquid ammonia (NH3) at 40° C.): approx. 45 % by weight
